Results: ChEMBL document CHEMBL1649335, “Discovery of {1-[4-(2-{hexahydropyrrolo[3,4-c]pyrrol-2(1H)-yl}-1H-benzimidazol-1-yl)piperidin-1-yl]cyclooctyl}methanol, systemically potent novel non-peptide agonist of nociceptin/orphanin FQ receptor as analgesic for the treatment of neuropathic pain: design, synthesis, and structure-activity …” (Bioorg Med Chem, 2010)
Active and inactive are the calls of the source.

Columns and labels:
[1] = biological target: D(2) dopamine receptor (Homo sapiens) (UniProt P14416); experiment: Inhibition of human dopamine D2 receptor at 1 uM relative to control
Chain of D(2) dopamine receptor (Homo sapiens) (P14416 whole entry): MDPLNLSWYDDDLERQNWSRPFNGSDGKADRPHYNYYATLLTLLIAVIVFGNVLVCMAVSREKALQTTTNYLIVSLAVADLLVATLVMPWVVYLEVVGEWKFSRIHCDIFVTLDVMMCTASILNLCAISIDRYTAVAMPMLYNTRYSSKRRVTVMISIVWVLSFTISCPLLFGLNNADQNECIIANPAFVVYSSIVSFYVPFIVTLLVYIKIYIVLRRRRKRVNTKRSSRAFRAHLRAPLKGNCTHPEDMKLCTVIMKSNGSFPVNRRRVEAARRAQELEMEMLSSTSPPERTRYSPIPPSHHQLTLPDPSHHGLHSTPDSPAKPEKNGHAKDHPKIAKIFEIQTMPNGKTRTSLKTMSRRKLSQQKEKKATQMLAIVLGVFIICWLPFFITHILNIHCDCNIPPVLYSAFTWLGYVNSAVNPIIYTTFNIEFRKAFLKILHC

Rattus norvegicus [2] = experiment: Toxicity in von Frey hair mechanically stimulated neuropathic pain Sprague-Dawley rat model assessed as sedation effect at up to 30 mg/kg, sc; type: organism-based; set-up: dose 30 mg/kg, route subcutaneous; conditions: in vivo
[3] = biological target: Vasopressin V1a receptor (Homo sapiens) (UniProt P37288); experiment: Inhibition of human vasopressin V1A receptor at 1 uM relative to control
Chain of Vasopressin V1a receptor (Homo sapiens) (P37288 whole entry, looked up): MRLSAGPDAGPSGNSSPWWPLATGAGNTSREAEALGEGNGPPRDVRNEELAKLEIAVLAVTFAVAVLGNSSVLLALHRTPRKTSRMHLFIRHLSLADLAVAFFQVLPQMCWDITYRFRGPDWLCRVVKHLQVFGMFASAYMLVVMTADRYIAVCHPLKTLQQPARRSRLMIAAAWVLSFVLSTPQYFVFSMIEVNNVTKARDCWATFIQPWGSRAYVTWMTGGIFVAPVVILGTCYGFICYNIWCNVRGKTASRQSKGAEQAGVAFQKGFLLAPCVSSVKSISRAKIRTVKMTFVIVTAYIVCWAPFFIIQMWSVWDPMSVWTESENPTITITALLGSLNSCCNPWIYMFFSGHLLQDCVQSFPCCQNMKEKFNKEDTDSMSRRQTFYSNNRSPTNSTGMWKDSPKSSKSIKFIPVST

Rattus norvegicus [4] = experiment: Antiallodynic activity against von Frey hair mechanically stimulated neuropathic pain in Sprague-Dawley rat assessed as effect on allodynia in contralateral paw at 1 to 30 mg/kg, sc after 2 hrs; type: functional, organism-based
Rattus norvegicus [5] = experiment: Antiallodynic activity against von Frey hair mechanically stimulated neuropathic pain in Sprague-Dawley rat assessed as effect on allodynia in contralateral paw at 1 to 30 mg/kg, sc after 30 mins; type: functional, organism-based
Rattus norvegicus [6] = species: Rattus norvegicus; experiment: Stimulation of rat guanylate cyclase at 1 uM relative to basal activity
Rattus norvegicus [7] = species: Rattus norvegicus; experiment: Inhibition of rat glutamate receptor at 1 uM relative to control
Rattus norvegicus [8] = experiment: Antiallodynic activity against von Frey hair mechanically stimulated neuropathic pain in icv dosed Sprague-Dawley rat assessed as assessed as minimum effective dose to increase of response threshold per site after 20 mins; type: functional
[9] = biological target: Histamine H3 receptor (Rattus norvegicus) (UniProt Q9QYN8); experiment: Inhibition of rat histamine H3 receptor at 1 uM relative to control
Chain of Histamine H3 receptor (Rattus norvegicus) (Q9QYN8 whole entry): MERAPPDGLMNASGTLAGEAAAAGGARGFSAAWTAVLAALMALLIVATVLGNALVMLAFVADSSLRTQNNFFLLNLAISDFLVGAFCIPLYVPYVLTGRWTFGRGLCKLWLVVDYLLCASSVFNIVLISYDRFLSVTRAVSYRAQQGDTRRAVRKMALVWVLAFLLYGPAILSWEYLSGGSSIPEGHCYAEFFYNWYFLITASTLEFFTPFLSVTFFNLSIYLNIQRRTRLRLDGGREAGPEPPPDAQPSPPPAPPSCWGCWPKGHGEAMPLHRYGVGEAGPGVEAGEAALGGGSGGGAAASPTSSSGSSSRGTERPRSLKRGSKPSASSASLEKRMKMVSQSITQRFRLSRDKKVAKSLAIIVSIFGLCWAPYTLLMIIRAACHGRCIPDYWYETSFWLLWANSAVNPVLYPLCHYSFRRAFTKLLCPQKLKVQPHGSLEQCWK

Rattus norvegicus [10] = species: Rattus norvegicus; experiment: Inhibition of rat glycine receptor at 1 uM relative to control
Rattus norvegicus [11] = species: Rattus norvegicus; experiment: Inhibition of rat GABA receptor at 1 uM relative to control
Rattus norvegicus [12] = experiment: Antiallodynic activity against von Frey hair mechanically stimulated neuropathic pain in Sprague-Dawley rat assessed as effect on allodynia in contralateral paw at 1 to 30 mg/kg, sc after 4 hrs; type: functional, organism-based
[13] = biological target: Sodium-dependent noradrenaline transporter (Homo sapiens) (UniProt P23975); experiment: Inhibition of human norepinephrine transporter at 1 uM relative to control
Chain of Sodium-dependent noradrenaline transporter (Homo sapiens) (P23975 whole entry): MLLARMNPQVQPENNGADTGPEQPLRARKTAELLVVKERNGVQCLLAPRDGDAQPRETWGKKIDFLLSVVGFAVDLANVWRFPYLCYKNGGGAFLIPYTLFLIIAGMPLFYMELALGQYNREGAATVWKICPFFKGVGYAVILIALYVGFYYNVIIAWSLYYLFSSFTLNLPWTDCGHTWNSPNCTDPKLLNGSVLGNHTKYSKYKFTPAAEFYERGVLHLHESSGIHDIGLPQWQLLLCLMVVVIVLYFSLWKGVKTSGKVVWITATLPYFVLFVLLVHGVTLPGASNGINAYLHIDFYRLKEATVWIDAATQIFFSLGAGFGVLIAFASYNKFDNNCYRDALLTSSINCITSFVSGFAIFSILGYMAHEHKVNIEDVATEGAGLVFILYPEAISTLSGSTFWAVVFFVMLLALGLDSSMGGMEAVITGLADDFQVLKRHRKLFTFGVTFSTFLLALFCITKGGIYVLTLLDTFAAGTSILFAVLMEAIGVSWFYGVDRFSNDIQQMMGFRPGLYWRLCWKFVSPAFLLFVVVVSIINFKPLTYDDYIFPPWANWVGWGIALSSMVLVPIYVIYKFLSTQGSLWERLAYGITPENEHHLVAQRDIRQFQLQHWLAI

Rattus norvegicus [14] = species: Rattus norvegicus; experiment: Inhibition of rat choline transporter at 1 uM relative to control
Rattus norvegicus [15] = experiment: Antiallodynic activity against von Frey hair mechanically stimulated neuropathic pain in sc dosed Sprague-Dawley rat assessed as assessed as minimum effective dose to increase of response threshold after 1 hr; type: functional
[16] = biological target: Type-1 angiotensin II receptor (Homo sapiens) (UniProt P30556); experiment: Inhibition of human angiotensin 2 AT1 receptor at 1 uM relative to control
Chain of Type-1 angiotensin II receptor (Homo sapiens) (P30556 whole entry): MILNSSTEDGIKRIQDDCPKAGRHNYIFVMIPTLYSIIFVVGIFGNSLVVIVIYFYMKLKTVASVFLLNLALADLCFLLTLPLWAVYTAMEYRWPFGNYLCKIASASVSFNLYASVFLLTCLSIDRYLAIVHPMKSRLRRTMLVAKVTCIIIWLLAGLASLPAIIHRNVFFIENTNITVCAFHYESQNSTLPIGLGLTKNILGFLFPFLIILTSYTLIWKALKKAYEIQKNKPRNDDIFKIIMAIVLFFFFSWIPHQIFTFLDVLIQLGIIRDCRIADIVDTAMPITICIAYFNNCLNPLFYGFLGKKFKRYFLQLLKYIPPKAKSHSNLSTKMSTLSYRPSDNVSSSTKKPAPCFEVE

[17] = biological target: D(4) dopamine receptor (Homo sapiens) (UniProt P21917); experiment: Inhibition of human dopamine D4.4 receptor at 1 uM relative to control
Chain of D(4) dopamine receptor (Homo sapiens) (P21917 whole entry): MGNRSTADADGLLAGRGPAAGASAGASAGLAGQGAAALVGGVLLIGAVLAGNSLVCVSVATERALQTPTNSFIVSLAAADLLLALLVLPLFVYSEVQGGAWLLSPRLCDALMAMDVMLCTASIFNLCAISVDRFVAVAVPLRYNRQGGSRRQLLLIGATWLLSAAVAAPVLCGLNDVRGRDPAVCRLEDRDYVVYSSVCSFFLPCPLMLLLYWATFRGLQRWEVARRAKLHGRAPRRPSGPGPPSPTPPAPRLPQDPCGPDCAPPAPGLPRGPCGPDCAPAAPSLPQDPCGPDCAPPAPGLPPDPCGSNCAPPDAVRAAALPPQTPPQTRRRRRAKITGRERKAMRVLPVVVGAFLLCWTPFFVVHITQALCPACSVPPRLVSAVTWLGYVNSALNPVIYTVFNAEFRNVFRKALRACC

Mu-type opioid receptor = Mu-type opioid receptor (Homo sapiens, UniProt P35372)
Chain of Mu-type opioid receptor (P35372 whole entry): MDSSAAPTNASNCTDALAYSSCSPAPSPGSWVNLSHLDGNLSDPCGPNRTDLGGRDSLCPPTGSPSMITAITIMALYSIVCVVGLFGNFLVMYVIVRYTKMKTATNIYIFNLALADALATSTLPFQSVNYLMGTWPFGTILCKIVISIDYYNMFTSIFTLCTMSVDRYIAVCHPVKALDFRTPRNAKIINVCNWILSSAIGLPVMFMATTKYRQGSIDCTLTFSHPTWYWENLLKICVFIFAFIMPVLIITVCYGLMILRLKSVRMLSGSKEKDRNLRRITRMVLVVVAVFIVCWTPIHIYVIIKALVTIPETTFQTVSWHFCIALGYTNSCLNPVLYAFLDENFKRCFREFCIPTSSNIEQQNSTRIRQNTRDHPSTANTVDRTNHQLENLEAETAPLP

Rattus norvegicus [18] = experiment: Antiallodynic activity against von Frey hair mechanically stimulated neuropathic pain in Sprague-Dawley rat assessed as effect on allodynia in contralateral paw at 5.5 to 170 nmol/site, icv after 1 hr; type: functional, organism-based
monoamine oxidase A = monoamine oxidase A (Homo sapiens, UniProt P21397); experiment: Inhibition of human monoamine oxidase A at 1 uM relative to control
Chain of monoamine oxidase A (P21397 whole entry): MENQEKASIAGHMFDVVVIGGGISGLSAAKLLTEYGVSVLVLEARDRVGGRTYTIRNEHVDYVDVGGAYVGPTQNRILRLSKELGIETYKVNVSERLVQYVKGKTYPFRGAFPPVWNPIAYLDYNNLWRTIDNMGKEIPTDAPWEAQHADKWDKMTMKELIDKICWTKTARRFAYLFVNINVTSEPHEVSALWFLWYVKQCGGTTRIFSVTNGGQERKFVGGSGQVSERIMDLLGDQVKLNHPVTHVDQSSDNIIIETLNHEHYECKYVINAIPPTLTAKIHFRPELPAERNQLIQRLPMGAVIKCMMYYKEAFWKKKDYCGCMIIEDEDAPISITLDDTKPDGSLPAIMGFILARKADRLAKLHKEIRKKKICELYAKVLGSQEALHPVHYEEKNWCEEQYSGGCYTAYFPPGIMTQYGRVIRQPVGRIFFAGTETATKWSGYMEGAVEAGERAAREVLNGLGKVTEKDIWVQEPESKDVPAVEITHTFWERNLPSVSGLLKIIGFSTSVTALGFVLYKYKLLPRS

Rattus norvegicus [19] = experiment: Antiallodynic activity against von Frey hair mechanically stimulated neuropathic pain in Sprague-Dawley rat assessed as increase of response threshold at 30 mg/kg, sc after 1 hr relative to control; type: functional; conditions: route subcutaneous
[20] = biological target: Sodium-dependent serotonin transporter (Homo sapiens) (UniProt P31645); experiment: Inhibition of human 5-HT transporter at 1 uM relative to control
Rattus norvegicus [21] = experiment: Antiallodynic activity against von Frey hair mechanically stimulated neuropathic pain in Sprague-Dawley rat assessed as increase of response threshold at 1 to 30 mg/kg, sc; type: functional, organism-based; conditions: TDE = time-dependent effect
Rattus norvegicus [22] = species: Rattus norvegicus; experiment: Inhibition of rat K+V channel at 1 uM relative to control
Rattus norvegicus [23] = experiment: Antiallodynic activity against von Frey hair mechanically stimulated neuropathic pain in intrathecally dosed Sprague-Dawley rat assessed as increase of response threshold per site after 1 hr; type: functional
Rattus norvegicus [24] = experiment: Antiallodynic activity against von Frey hair mechanically stimulated neuropathic pain in icv dosed Sprague-Dawley rat assessed as increase of response threshold per site after 20 mins; type: functional
Rattus norvegicus [25] = experiment: Antiallodynic activity against von Frey hair mechanically stimulated neuropathic pain in intrathecally dosed Sprague-Dawley rat assessed as assessed as minimum effective dose to increase of response threshold per site after 1 hr; type: functional
Rattus norvegicus [26] = experiment: Antiallodynic activity against von Frey hair mechanically stimulated neuropathic pain in sc dosed Sprague-Dawley rat assessed as assessed as minimum effective dose to increase of response threshold after 2 hrs; type: functional
[27] = biological target: L-type calcium channel, dihydropyridine site (Rattus norvegicus, UniProt P22002+P27732+Q02485); experiment: Inhibition of rat L-type calcium channel dihydropyridine site at 1 uM relative to control
[28] = biological target: Estrogen receptor (Homo sapiens) (UniProt P03372); experiment: Inhibition of human estrogen receptor beta at 1 uM relative to control
Chain of Estrogen receptor (Homo sapiens) (P03372 whole entry): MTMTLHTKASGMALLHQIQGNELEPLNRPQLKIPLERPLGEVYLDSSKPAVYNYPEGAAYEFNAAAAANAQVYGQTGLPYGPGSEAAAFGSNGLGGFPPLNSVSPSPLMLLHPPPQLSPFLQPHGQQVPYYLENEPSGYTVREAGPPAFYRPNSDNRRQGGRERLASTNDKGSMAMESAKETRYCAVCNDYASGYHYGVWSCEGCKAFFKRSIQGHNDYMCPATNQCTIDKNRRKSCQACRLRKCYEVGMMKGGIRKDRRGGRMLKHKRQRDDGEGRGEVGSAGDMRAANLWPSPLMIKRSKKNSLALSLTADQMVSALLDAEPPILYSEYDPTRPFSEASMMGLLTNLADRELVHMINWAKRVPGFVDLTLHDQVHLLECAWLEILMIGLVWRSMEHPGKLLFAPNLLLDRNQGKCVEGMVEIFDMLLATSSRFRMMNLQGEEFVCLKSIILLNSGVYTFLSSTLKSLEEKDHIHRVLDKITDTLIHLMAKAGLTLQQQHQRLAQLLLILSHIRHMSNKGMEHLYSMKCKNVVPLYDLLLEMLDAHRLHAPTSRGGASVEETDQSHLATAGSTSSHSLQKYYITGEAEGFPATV

Rattus norvegicus [29] = experiment: Antiallodynic activity against von Frey hair mechanically stimulated neuropathic pain in Sprague-Dawley rat assessed as increase of response threshold per site at 170 nmol/site administered intrathecally after 20 mins relative to control; type: functional
Rattus norvegicus [30] = species: Rattus norvegicus; experiment: Inhibition of rat neuronal-type nicotinic acetylcholine receptor at 1 uM relative to control
Rattus norvegicus [31] = experiment: Toxicity in von Frey hair mechanically stimulated neuropathic pain Sprague-Dawley rat model assessed as respiratory depression at up to 170 nmol/site, icv; type: organism-based; conditions: in vivo, icv_or_intrathecal
Rattus norvegicus [32] = experiment: Antiallodynic activity against von Frey hair mechanically stimulated neuropathic pain in Sprague-Dawley rat assessed as increase of response threshold per site at 55 nmol/site administered intrathecally after 1 hr relative to control; type: functional
[33] = Drug level Sprague-Dawley rat spinal cord at 10 mg/kg, sc after 0.5 hrs; type: ADME, organism-based; set-up: dose 10 mg/kg, route subcutaneous; conditions: read-out: Drug uptake
[34] = Drug level Sprague-Dawley rat plasma at 10 mg/kg, sc after 0.5 hrs; type: ADME, organism-based; set-up: dose 10 mg/kg, route subcutaneous; conditions: read-out: Drug uptake
[35] = Drug level Sprague-Dawley rat brain at 10 mg/kg, sc after […]; type: ADME, organism-based; set-up: dose 10 mg/kg, route subcutaneous; conditions: read-out: Drug uptake
Rattus norvegicus [36] = experiment: Antiallodynic activity against von Frey hair mechanically stimulated neuropathic pain in sc dosed Sprague-Dawley rat assessed as increase of response threshold after 1 hr; type: functional
[37] = biological target: Muscarinic acetylcholine receptor M1 (Homo sapiens) (UniProt P11229); experiment: Inhibition of human muscarinic M1 receptor at 1 uM relative to control
[38] = biological target: Adrenergic receptor alpha-2 (Rattus norvegicus) (UniProt P22086+P19328+P22909); experiment: Inhibition of rat alpha2 adrenoceptor at 1 uM relative to control
Rattus norvegicus [39] = experiment: Antiallodynic activity against von Frey hair mechanically stimulated neuropathic pain in intrathecally dosed Sprague-Dawley rat assessed as increase of response threshold per site after 20 mins; type: functional
[40] = biological target: Sodium-dependent dopamine transporter (Homo sapiens) (UniProt Q01959); experiment: Inhibition of human dopamine transporter at 1 uM relative to control
Chain of Sodium-dependent dopamine transporter (Homo sapiens) (Q01959 whole entry): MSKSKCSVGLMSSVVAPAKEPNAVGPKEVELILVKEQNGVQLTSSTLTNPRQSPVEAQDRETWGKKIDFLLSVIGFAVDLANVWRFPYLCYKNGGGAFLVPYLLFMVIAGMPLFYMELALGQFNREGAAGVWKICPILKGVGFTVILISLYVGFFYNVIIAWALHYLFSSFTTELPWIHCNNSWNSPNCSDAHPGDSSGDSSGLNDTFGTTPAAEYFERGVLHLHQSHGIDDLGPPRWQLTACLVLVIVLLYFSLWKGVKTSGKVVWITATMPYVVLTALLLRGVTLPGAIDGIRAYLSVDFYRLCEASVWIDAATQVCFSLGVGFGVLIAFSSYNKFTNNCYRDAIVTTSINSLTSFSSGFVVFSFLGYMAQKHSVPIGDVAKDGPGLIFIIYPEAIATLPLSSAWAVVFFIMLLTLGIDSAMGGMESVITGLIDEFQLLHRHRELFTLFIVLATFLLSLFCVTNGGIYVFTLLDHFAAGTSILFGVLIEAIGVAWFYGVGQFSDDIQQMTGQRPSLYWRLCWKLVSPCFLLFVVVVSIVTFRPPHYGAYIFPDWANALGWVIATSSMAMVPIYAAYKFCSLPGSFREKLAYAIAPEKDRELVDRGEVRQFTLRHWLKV

Rattus norvegicus [41] = experiment: Toxicity in von Frey hair mechanically stimulated neuropathic pain Sprague-Dawley rat model assessed as respiratory depression at up to 30 mg/kg, sc; type: organism-based; set-up: dose 30 mg/kg, route subcutaneous; conditions: in vivo

OCC1(N2CCC(n3c(N4CC5CNCC5C4)nc4ccccc43)CC2)CCCCCCC1 (stereo not given)
inhibition [1]: < 10%
Activity (Rattus norvegicus [2]): Non-toxic
inhibition [3]: < 10%
Activity (Rattus norvegicus [4]): inactive
Activity (Rattus norvegicus [5]): inactive
inhibition (Rattus norvegicus [6]): < 10%
inhibition (Rattus norvegicus [7]): < 10%
MED (Rattus norvegicus [8]): 55 nmol
inhibition [9]: < 10%
inhibition (Rattus norvegicus [10]): < 10%
inhibition (Rattus norvegicus [11]): < 10%
Activity (Rattus norvegicus [12]): inactive
inhibition [13]: < 10%
inhibition (Rattus norvegicus [14]): 11%
MED (Rattus norvegicus [15]): 10 mg/kg
inhibition [16]: < 10%
inhibition [17]: < 10%
EC50 (Mu-type opioid receptor): 3.5 µM
Activity (Rattus norvegicus [18]): inactive
inhibition at 1 µM (monoamine oxidase A): 12%
Activity (Rattus norvegicus [19]): 79.3%
inhibition [20]: < 10%
Activity (Rattus norvegicus [21]): tde
inhibition (Rattus norvegicus [22]): < 10%
Activity (Rattus norvegicus [23]): Dose-dependent effect
ED50 (Rattus norvegicus [23]): >170 nmol
ED50 (Rattus norvegicus [24]): 170 nmol
MED (Rattus norvegicus [25]): 55 nmol
MED (Rattus norvegicus [26]): 30 mg/kg
inhibition at 1 µM [27]: < 10%
inhibition [28]: < 10%
Activity (Rattus norvegicus [29]): 59.3%
inhibition (Rattus norvegicus [30]): < 10%
Activity (Rattus norvegicus [31]): Non-toxic
Activity (Rattus norvegicus [32]): 31.1%
concentration at 0.5 h [33]: 48 ng/mL
concentration at 0.5 h [34]: 600 ng/mL
concentration at […] [35]: 226 ng/mL
ED50 (Rattus norvegicus [36]): 10.8 mg/kg
inhibition [37]: 15%
inhibition [38]: < 10%
Activity (Rattus norvegicus [39]): Dose-dependent effect
ED50 (Rattus norvegicus [39]): 80 nmol
inhibition [40]: < 10%
Activity (Rattus norvegicus [41]): Non-toxic
